In US8629144B2, “Polymorphic and hydrate forms, salts and process for preparing 6-{difluoro[6-(1-methyl-1H-pyrazol-4-yl)[1,2,4]triazolo[4,3-b]pyridazin-3-yl]methyl}quinoline” (Janssen Pharmaceutica NV, priority 2007, dated 2014):
In brackets after ≈: the same amount, converted by molar mass. Like-named read-outs stand apart in the source and are kept apart here.

Assays:
Type in all cases: physicochemical
[1] = Aqueous solubility of Forms I, III and hydrate at different pH
Description: Solubility of polymorph Forms I and III and the hydrate form of the compound of formula (I) was tested in aqueous conditions at different pH values.

[2] = Crystallographic stability of Form I on storage (TGA, DSC, XRPD, IR); set-up: key to IR: ±Ref: contain some small extra signals
Description: The stability of the crystal structure of polymorph Form I of the compound (I) was studied after storage of the compound in open conditions for a period of six weeks at room temperature (RT) under <5%, 56% and 75% relative humidity (RH) at 50° C., and at 40° C. and 75% RH.
The samples were analysed by TGA, DSC, XRPD and IR spectroscopy.

[3] = Adsorption and desorption of water at 25° C. (Form I)
Description: Adsorption and desorption of water at 25° C. at different conditions of relative humidity was investigated on about 10 mg Form I of compound of formula (I), by registering the weight change as a function of relative humidity.
During an initial drying step a weight loss of 0.05% was registered.

[4] = Slurry conversion on mixtures of Form III and Form I (XRPD); set-up: key to Polymorphic composition (XRPD) after slurry: Form I; *: low amount of product; settings: for Polymorphic composition (XRPD) after slurry: overnight
Description: 30 mg of mixture of Form III and Form I and 0.25 ml solvent (2-propanol; or ethanol/water (8/2, v/v)) were placed in a vial. For each solvent, 2 vials were prepared and stored each at different temperatures (RT, 70° C.) overnight. After storage, the slurry was spread on a paper filter, the solid fractions were collected and dried 2 hours at RT. The polymorphic composition was measured using XRPD.

[5] = Chemical stability of Form I on storage (HPLC, visual inspection)
Description: Chemical stability of Form I was tested in different open storage conditions for periods of 1, 4 and 8 weeks: 40° C./75% RH; 50° C.; RT/<5% RH; RT/56% RH; RT/75% RH and 0.3da ICH high intensity light. The compound was analysed after storage by HPLC and by visual inspection.

[6] = Stability of the hydrate form in aqueous suspension (XRPD, SEM); settings: aqueous suspension 16 mg/ml
Description: Aqueous suspension of the compound of formula (I) 16 mg/ml was stored at about 4° C. up to 9 days. Samples were taken after 1, 2 and 9 days of storage. The suspensions were spread over a paper filter and dried at room temperature for 2 hours. The obtained materials were analysed by XRPD.
Moreover, the hydrate remained stable in the aqueous medium for at least 9 days (XRD not substantially changed).

[7] = Thermal conversions in DSC oven (XRPD)
Description: Form III or hydrate form were thermally treated in a DSC oven (heating rate 10° C./min) up to selected temperatures (isotherm for 1 min) using an open sample pan. The selected temperatures are for Form III: 110° C. and 170° C.; and for hydrate form: 70° C., 110° C. and 170° C. The polymorphic composition of the obtained fractions was measured by XRPD. Table 12 summarises XRPD patterns in DSC treated Form III. Table 13 summarises XRPD patterns in DSC treated hydrate

[8] = six weeks open storage, 40° C./75% RH
[9] = six weeks open storage, RT/56% RH
[10] = six weeks open storage, RT/75% RH
[11] = six weeks open storage, RT/<5% RH

Molecule `Cn1cc(-c2ccc3nnc(C(F)(F)c4ccc5ncccc5c4)n3n2)cn1` [Form I, 6-{difluoro[6-(1-methyl-1H-pyrazol-4-yl)[1,2,4]triazolo[4,3-b]pyridazin-3-yl]methyl}quinoline] has a Solubility ([1]; aqueous medium, simulated gastric fluid, thermodynamic from solid, 0.01 HCl, read-out: Solubility) of 100 µg/mL (≈ 265 µM), a Solubility ([1]; aqueous medium, simulated gastric fluid, thermodynamic from solid, 0.1 HCl, read-out: Solubility) of 1300 µg/mL (≈ 3450 µM) and a Solubility ([1]; pH2) of 430 µg/mL (≈ 1140 µM). For the same molecule, the Solubility ([1]; pH4) was 5 µg/mL (≈ 13.3 µM), the Solubility ([1]; pH6) was 3 µg/mL (≈ 7.95 µM) and the Solubility ([1]; pH8) was 4 µg/mL (≈ 10.6 µM). The Solubility ([1]; pH10) was 3 µg/mL (≈ 7.95 µM), the “DSC Max” value ([2]; 0 days) was 201.0 °C and the “DSC ΔH” value ([2]; 0 days) was 101 J/g. For the same molecule, the IR ([2]; 0 days) was “Cryst., Ref”, the TGA <100° C. ([2]; 0 days) was 0.12% and the TGA <240° C. ([2]; 0 days) was 0.36%. For the same molecule, the XRD ([2]; 0 days) was “Cryst., Ref”, the Crystallographic stability ([2]; after storage under the different conditions) was “crystallographically stable” and the “DSC Max” value [2, 8] was 200.5 °C. For the same molecule, the “DSC ΔH” value [2, 8] was 119 J/g, the IR [2, 8] was “~Ref (identical with Form I reference)” and the TGA <100° C. [2, 8] was 0.33%. For the same molecule, the TGA <240° C. [2, 8] was 0.48%, the XRD [2, 8] was “~Ref (identical with Form I reference)” and the IR ([2]; six weeks open storage, 50° C.) was “~Ref (identical with Form I reference)”. For the same molecule, the TGA <100° C. ([2]; six weeks open storage, 50° C.) was 0.31%, the TGA <240° C. ([2]; six weeks open storage, 50° C.) was 0.57% and the XRD ([2]; six weeks open storage, 50° C.) was “~Ref (identical with Form I reference)”. The “DSC Max” value [2, 9] was 200.4 °C, the “DSC ΔH” value [2, 9] was 120 J/g and the IR [2, 9] was “±Ref”. The TGA <100° C. [2, 9] was 0.58%, the TGA <240° C. [2, 9] was 0.8% and the XRD [2, 9] was “~Ref (identical with Form I reference)”. The “DSC Max” value [2, 10] was 200.1 °C, the “DSC ΔH” value [2, 10] was 121 J/g and the IR [2, 10] was “±Ref”. For the same molecule, the TGA <100° C. [2, 10] was 0.25%, the TGA <240° C. [2, 10] was 0.57% and the XRD [2, 10] was “~Ref (identical with Form I reference)”. The “DSC Max” value [2, 11] was 200.1 °C, the “DSC ΔH” value [2, 11] was 124 J/g and the IR [2, 11] was “~Ref (identical with Form I reference)”. The TGA <100° C. [2, 11] was 0.74%, the TGA <240° C. [2, 11] was 0.75% and the XRD [2, 11] was “~Ref (identical with Form I reference)”. The “Weight loss during initial drying step” value ([3]; about 10 mg) was 0.05%, the “Water adsorbed by dry product” value ([3]; depending on the atmospheric humidity) was “up to 0.5%” and the Hygroscopic behaviour ([3]; different relative humidity) was “no hygroscopic behaviour”. For the same molecule, the Relative polymorph stability ([4]; from RT up to 70° C.) was “most stable polymorph”, the “HPLC Sum of impurities” value ([5]; 0.3da ICH light, 1 w) was 0.55 w/w % and the Appearance ([5]; 0.3da ICH light, 1 week) was “slightly yellow”. For the same molecule, the “HPLC Sum of impurities” value ([5]; 40° C./75% RH, 1 w) was 0.51 w/w %, the Appearance ([5]; 40° C./75% RH, 1 week) was “slightly yellow” and the “HPLC Sum of impurities” value ([5]; 40° C./75% RH, 4 w) was 0.66 w/w %. For the same molecule, the Appearance ([5]; 40° C./75% RH, 4 weeks) was “slightly yellow”, the “HPLC Sum of impurities” value ([5]; 40° C./75% RH, 8 w) was 0.54 w/w % and the Appearance ([5]; 40° C./75% RH, 8 weeks) was “slightly yellow”. The “HPLC Sum of impurities” value ([5]; 50° C., 1 w) was 0.56 w/w %, the Appearance ([5]; 50° C., 1 week) was “slightly yellow” and the “HPLC Sum of impurities” value ([5]; 50° C., 4 w) was 0.59 w/w %. For the same molecule, the Appearance ([5]; 50° C., 4 weeks) was “slightly yellow”, the “HPLC Sum of impurities” value ([5]; 50° C., 8 w) was 0.54 w/w % and the Appearance ([5]; 50° C., 8 weeks) was “slightly yellow”. For the same molecule, the “HPLC Sum of impurities” value ([5]; RT/56% RH, 4 w) was 0.53 w/w %, the Appearance ([5]; RT/56% RH, 4 weeks) was “slightly yellow” and the “HPLC Sum of impurities” value ([5]; RT/56% RH, 8 w) was 0.53 w/w %. For the same molecule, the Appearance ([5]; RT/56% RH, 8 weeks) was “slightly yellow”, the “HPLC Sum of impurities” value ([5]; RT/75% RH, 4 w) was 0.53 w/w % and the Appearance ([5]; RT/75% RH, 4 weeks) was “slightly yellow”. The “HPLC Sum of impurities” value ([5]; RT/75% RH, 8 w) was 0.77 w/w %, the Appearance ([5]; RT/75% RH, 8 weeks) was “slightly yellow” and the “HPLC Sum of impurities” value ([5]; RT/<5% RH, 4 w) was 0.62 w/w %. The Appearance ([5]; RT/<5% RH, 4 weeks) was “slightly yellow”, the “HPLC Sum of impurities” value ([5]; RT/<5% RH, 8 w) was 0.53 w/w % and the Appearance ([5]; RT/<5% RH, 8 weeks) was “slightly yellow”. The “HPLC Sum of impurities” value ([5]; Reference, 1 w) was 0.54 w/w %, the Appearance ([5]; Reference, 1 week) was “slightly yellow” and the Chemical stability ([5]; all investigated conditions) was “chemically stable”.

For `Cn1cc(-c2ccc3nnc(C(F)(F)c4ccc5ncccc5c4)n3n2)cn1` [mixture of Form III and Form I], the “XRD patterns of the stored suspensions” value ([6]; 4° C., 1 day, 2 days and 9 days) was “compatible with those of the hydrate form”, the “Polymorphic composition (XRPD) after slurry” value (“Polymorphic composition (XRPD)” below) ([4]; 2-propanol, 70° C.) was “I” and the “Polymorphic composition (XRPD)” value ([4]; 2-propanol, RT) was “I”. For the same molecule, the “Polymorphic composition (XRPD)” value ([4]; ethanol/water (8/2, v/v), 70° C., low amount of product) was “I*” and the “Polymorphic composition (XRPD)” value ([4]; ethanol/water (8/2, v/v), RT) was “I”.

With `Cn1cc(-c2ccc3nnc(C(F)(F)c4ccc5ncccc5c4)n3n2)cn1` [hydrate, 6-{difluoro[6-(1-methyl-1H-pyrazol-4-yl)[1,2,4]triazolo[4,3-b]pyridazin-3-yl]methyl}quinoline] the XRPD measured composition ([7]; DSC treated hydrate, up to 70° C.) was “hydrate + Form III”, the XRPD measured composition ([7]; DSC treated hydrate, up to 110° C.) was “Form III” and the XRPD measured composition ([7]; DSC treated hydrate, up to 170° C.) was “mainly Form I”. The XRPD measured composition ([7]; starting hydrate) was “hydrate”, the Solubility ([1]; 0.01 HCl) was 56 µg/mL and the Solubility ([1]; 0.1 HCl) was 810 µg/mL. For the same molecule, the Solubility ([1]; pH2) was 65 µg/mL, the Solubility ([1]; pH4) was 2 µg/mL and the Solubility ([1]; pH6) was 1 µg/mL. The Solubility ([1]; pH8) was 1 µg/mL, the Solubility ([1]; pH10) was 1 µg/mL and the “Time hydrate remained stable in the aqueous medium (XRD not substantially changed)” value ([6]; about 4° C.) was “at least 9 days”.
